Key:
Shigella sonnei [1] = test: Antibacterial activity against Shigella sonnei assessed as percent resistant isolates by broth microdilution method; format: functional; settings: pooled result: one value given for 4 cell lines, strains, targets or settings
Yersinia enterocolitica [2] = test: Antibacterial activity against Yersinia enterocolitica assessed as percent resistant isolates by broth microdilution method; format: functional
Campylobacter jejuni [3] = test: Antibacterial activity against Campylobacter jejuni assessed as percent resistant isolates by broth microdilution method; format: functional; settings: pooled result: one value given for 2 cell lines, strains, targets or settings
Campylobacter coli = test: Antibacterial activity against Campylobacter coli by broth microdilution method; format: functional
Vibrio parahaemolyticus [4] = test: Antibacterial activity against Vibrio parahaemolyticus assessed as percent susceptible isolates by broth microdilution method; format: functional
Vibrio fluvialis [5] = test: Antibacterial activity against Vibrio fluvialis by broth microdilution method; format: functional
Aeromonas caviae [6] = test: Antibacterial activity against Aeromonas caviae by broth microdilution method; format: functional
Aeromonas caviae [7] = test: Antibacterial activity against Aeromonas caviae assessed as percent resistant isolates by broth microdilution method; format: functional
Vibrio fluvialis [8] = test: Antibacterial activity against Vibrio fluvialis assessed as percent susceptible isolates by broth microdilution method; format: functional
Vibrio cholerae [9] = test: Antibacterial activity against Vibrio cholerae assessed as percent susceptible isolates by broth microdilution method; format: functional
Aeromonas hydrophila [10] = test: Antibacterial activity against Aeromonas hydrophila assessed as percent susceptible isolates by broth microdilution method; format: functional
[11] = tested on: Yersinia pseudotuberculosis; test: Antibacterial activity against Yersinia pseudotuberculosis by broth microdilution method; format: functional
Vibrio fluvialis [12] = test: Antibacterial activity against Vibrio fluvialis assessed as percent resistant isolates by broth microdilution method; format: functional
Shigella boydii [13] = test: Antibacterial activity against Shigella boydii by broth microdilution method; format: functional
Salmonella typhimurium [14] = test: Antibacterial activity against Salmonella enterica serovar Typhimurium assessed as percent resistant isolates by broth microdilution method; format: functional, Salmonella enterica subsp. enterica serovar Typhimurium; settings: pooled result: one value given for 8 cell lines, strains, targets or settings
Shigella boydii [15] = test: Antibacterial activity against Shigella boydii assessed as percent susceptible isolates by broth microdilution method; format: functional; settings: pooled result: one value given for 3 cell lines, strains, targets or settings
Plesiomonas shigelloides [16] = test: Antibacterial activity against Plesiomonas shigelloides by broth microdilution method; format: functional
Vibrio sp. [17] = test: Antibacterial activity against Vibrio sp. assessed as percent resistant isolates by broth microdilution method; format: functional
Plesiomonas shigelloides [18] = test: Antibacterial activity against Plesiomonas shigelloides assessed as percent susceptible isolates by broth microdilution method; format: functional
Vibrio sp. [19] = test: Antibacterial activity against Vibrio sp. by broth microdilution method; format: functional
Shigella sonnei [20] = test: Antibacterial activity against Shigella sonnei by broth microdilution method; format: functional
Campylobacter jejuni [21] = test: Antibacterial activity against Campylobacter jejuni assessed as percent susceptible isolates by broth microdilution method; format: functional; settings: pooled result: one value given for 2 cell lines, strains, targets or settings
Aeromonas veronii [22] = test: Antibacterial activity against Aeromonas veronii assessed as percent susceptible isolates by broth microdilution method; format: functional
Salmonella enteritidis [23] = test: Antibacterial activity against Salmonella enterica serovar Enteritidis assessed as percent susceptible isolates by broth microdilution method; format: functional, Salmonella enterica subsp. enterica serovar Enteritidis; settings: pooled result: one value given for 5 cell lines, strains, targets or settings
Aeromonas sobria [24] = test: Antibacterial activity against Aeromonas sobria by broth microdilution method; format: functional
Salmonella typhimurium [25] = test: Antibacterial activity against Salmonella enterica serovar Typhimurium by broth microdilution method; format: functional, Salmonella enterica subsp. enterica serovar Typhimurium
Aeromonas sobria [26] = test: Antibacterial activity against Aeromonas sobria assessed as percent resistant isolates by broth microdilution method; format: functional
Shigella flexneri = test: Antibacterial activity against Shigella flexneri by broth microdilution method; format: functional
Escherichia coli [27] = test: Antibacterial activity against Escherichia coli assessed as percent susceptible isolates by broth microdilution method; format: functional
Aeromonas caviae [28] = test: Antibacterial activity against Aeromonas caviae assessed as percent susceptible isolates by broth microdilution method; format: functional
Aeromonas hydrophila [29] = test: Antibacterial activity against Aeromonas hydrophila assessed as percent resistant isolates by broth microdilution method; format: functional
Aeromonas hydrophila [30] = test: Antibacterial activity against Aeromonas hydrophila by broth microdilution method; format: functional
Yersinia enterocolitica [31] = test: Antibacterial activity against Yersinia enterocolitica by broth microdilution method; format: functional
Vibrio vulnificus [32] = test: Antibacterial activity against Vibrio vulnificus by broth microdilution method; format: functional
Plesiomonas shigelloides [33] = test: Antibacterial activity against Plesiomonas shigelloides assessed as percent resistant isolates by broth microdilution method; format: functional
Vibrio parahaemolyticus [34] = test: Antibacterial activity against Vibrio parahaemolyticus by broth microdilution method; format: functional
Shigella dysenteriae = test: Antibacterial activity against Shigella dysenteriae by broth microdilution method; format: functional
Vibrio alginolyticus [35] = test: Antibacterial activity against Vibrio alginolyticus assessed as percent susceptible isolates by broth microdilution method; format: functional
Vibrio alginolyticus [36] = test: Antibacterial activity against Vibrio alginolyticus assessed as percent resistant isolates by broth microdilution method; format: functional
Campylobacter jejuni [37] = test: Antibacterial activity against Campylobacter jejuni by broth microdilution method; format: functional
Aeromonas veronii [38] = test: Antibacterial activity against Aeromonas veronii by broth microdilution method; format: functional
Vibrio vulnificus [39] = test: Antibacterial activity against Vibrio vulnificus assessed as percent susceptible isolates by broth microdilution method; format: functional
Escherichia coli [40] = test: Antibacterial activity against Escherichia coli by broth microdilution method; format: functional
Salmonella enteritidis [41] = test: Antibacterial activity against Salmonella enterica serovar Enteritidis by broth microdilution method; format: functional, Salmonella enterica subsp. enterica serovar Enteritidis
Vibrio parahaemolyticus [42] = test: Antibacterial activity against Vibrio parahaemolyticus assessed as percent resistant isolates by broth microdilution method; format: functional
Yersinia enterocolitica [43] = test: Antibacterial activity against Yersinia enterocolitica assessed as percent susceptible isolates by broth microdilution method; format: functional
Aeromonas sobria [44] = test: Antibacterial activity against Aeromonas sobria assessed as percent susceptible isolates by broth microdilution method; format: functional
Vibrio cholerae [45] = test: Antibacterial activity against Vibrio cholerae by broth microdilution method; format: functional
Vibrio cholerae [46] = test: Antibacterial activity against Vibrio cholerae assessed as percent resistant isolates by broth microdilution method; format: functional
Aeromonas veronii [47] = test: Antibacterial activity against Aeromonas veronii assessed as percent resistant isolates by broth microdilution method; format: functional
Escherichia coli [48] = test: Antibacterial activity against Escherichia coli assessed as percent resistant isolates by broth microdilution method; format: functional
Vibrio vulnificus [49] = test: Antibacterial activity against Vibrio vulnificus assessed as percent resistant isolates by broth microdilution method; format: functional
Vibrio sp. [50] = test: Antibacterial activity against Vibrio sp. assessed as percent susceptible isolates by broth microdilution method; format: functional
Vibrio alginolyticus [51] = test: Antibacterial activity against Vibrio alginolyticus by broth microdilution method; format: functional

C[C@H]1c2cccc(O)c2C(=O)C2=C(O)[C@]3(O)C(=O)C(C(N)=O)=C(O)[C@@H](N(C)C)[C@@H]3[C@@H](O)[C@@H]21.O [DOXYCYCLINE]
Activity (Shigella sonnei [1]): 52.5% | Activity (Yersinia enterocolitica [2]): 4.3% | Activity (Campylobacter jejuni [3]): 33.9% | MIC (Campylobacter coli): ≤ 0.12 µg/mL | MIC50 (Campylobacter coli): ≤ 0.12 µg/mL | MIC90 (Campylobacter coli): 16 µg/mL | Activity (Vibrio parahaemolyticus [4]): 100% | MIC (Vibrio fluvialis [5]): ≤ 0.12 µg/mL | MIC50 (Vibrio fluvialis [5]): ≤ 0.12 µg/mL | MIC90 (Vibrio fluvialis [5]): ≤ 0.12 µg/mL | MIC50 (Aeromonas caviae [6]): 0.5 µg/mL | MIC90 (Aeromonas caviae [6]): 1 µg/mL | Activity (Aeromonas caviae [7]): 0% | Activity (Vibrio fluvialis [8]): 100% | Activity (Vibrio cholerae [9]): 100% | Activity (Aeromonas hydrophila [10]): 100% | MIC50 [11]: 1 µg/mL | MIC90 [11]: 2 µg/mL | Activity (Vibrio fluvialis [12]): 0% | MIC50 (Shigella boydii [13]): 16 µg/mL | MIC90 (Shigella boydii [13]): 32 µg/mL | Activity (Salmonella typhimurium [14]): 13.9% | Activity (Shigella boydii [15]): 34.7% | MIC (Plesiomonas shigelloides [16]): ≤ 0.12 µg/mL | MIC50 (Plesiomonas shigelloides [16]): ≤ 0.12 µg/mL | Activity (Vibrio sp. [17]): 0% | Activity (Plesiomonas shigelloides [18]): 100% | MIC (Vibrio sp. [19]): ≤ 0.12 µg/mL | MIC50 (Vibrio sp. [19]): ≤ 0.12 µg/mL | MIC90 (Vibrio sp. [19]): ≤ 0.12 µg/mL | MIC50 (Shigella sonnei [20]): 16 µg/mL | MIC90 (Shigella sonnei [20]): 32 µg/mL | Activity (Campylobacter jejuni [21]): 59.6% | Activity (Aeromonas veronii [22]): 100% | Activity (Salmonella enteritidis [23]): 82.2% | MIC50 (Aeromonas sobria [24]): 0.5 µg/mL | MIC90 (Aeromonas sobria [24]): 1 µg/mL | MIC50 (Salmonella typhimurium [25]): 2 µg/mL | MIC90 (Salmonella typhimurium [25]): 32 µg/mL | Activity (Aeromonas sobria [26]): 0% | MIC50 (Shigella flexneri): 16 µg/mL | MIC90 (Shigella flexneri): 32 µg/mL | Activity (Escherichia coli [27]): 76% | Activity (Aeromonas caviae [28]): 100% | Activity (Aeromonas hydrophila [29]): 0% | MIC50 (Aeromonas hydrophila [30]): 0.5 µg/mL | MIC90 (Aeromonas hydrophila [30]): 1 µg/mL | MIC50 (Yersinia enterocolitica [31]): 1 µg/mL | MIC90 (Yersinia enterocolitica [31]): 2 µg/mL | MIC (Vibrio vulnificus [32]): ≤ 0.12 µg/mL | MIC50 (Vibrio vulnificus [32]): ≤ 0.12 µg/mL | MIC90 (Vibrio vulnificus [32]): ≤ 0.12 µg/mL | Activity (Plesiomonas shigelloides [33]): 0% | MIC (Vibrio parahaemolyticus [34]): ≤ 0.12 µg/mL | MIC50 (Vibrio parahaemolyticus [34]): ≤ 0.12 µg/mL | MIC90 (Vibrio parahaemolyticus [34]): ≤ 0.12 µg/mL | MIC50 (Shigella dysenteriae): 16 µg/mL | MIC90 (Shigella dysenteriae): 32 µg/mL | Activity (Vibrio alginolyticus [35]): 100% | Activity (Vibrio alginolyticus [36]): 0% | MIC (Campylobacter jejuni [37]): ≤ 0.12 µg/mL | MIC50 (Campylobacter jejuni [37]): ≤ 0.12 µg/mL | MIC90 (Campylobacter jejuni [37]): 16 µg/mL | MIC50 (Aeromonas veronii [38]): 0.5 µg/mL | MIC90 (Aeromonas veronii [38]): 1 µg/mL | Activity (Vibrio vulnificus [39]): 100% | MIC50 (Escherichia coli [40]): 2 µg/mL | MIC90 (Escherichia coli [40]): 16 µg/mL | MIC50 (Salmonella enteritidis [41]): 2 µg/mL | MIC90 (Salmonella enteritidis [41]): 32 µg/mL | Activity (Vibrio parahaemolyticus [42]): 0% | Activity (Yersinia enterocolitica [43]): 95.7% | Activity (Aeromonas sobria [44]): 100% | MIC (Vibrio cholerae [45]): ≤ 0.12 µg/mL | MIC50 (Vibrio cholerae [45]): ≤ 0.12 µg/mL | MIC90 (Vibrio cholerae [45]): ≤ 0.12 µg/mL | Activity (Vibrio cholerae [46]): 0% | Activity (Aeromonas veronii [47]): 0% | Activity (Escherichia coli [48]): 16% | Activity (Vibrio vulnificus [49]): 0% | Activity (Vibrio sp. [50]): 100% | MIC (Vibrio alginolyticus [51]): ≤ 0.12 µg/mL | MIC50 (Vibrio alginolyticus [51]): ≤ 0.12 µg/mL | MIC90 (Vibrio alginolyticus [51]): ≤ 0.12 µg/mL

Source: ChEMBL document CHEMBL1629662, “Antimicrobial activity of prulifloxacin tested against a worldwide collection of gastroenteritis-producing pathogens, including those causing traveler's diarrhea” (2009)
